{"source": "patent US20250249056A1", "about": "“CANCER THERAPIES COMPRISING A NUCLEAR EXPORT INHIBITOR AND AN ONCOLYTIC VIRUS” (priority 2022, published 2025)", "key": {"PANC-1 cells": {"system": "PANC-1 cells", "experiment": "CyQUANT NF cell proliferation assay (PANC-1)", "type": "cell-based, human", "details": "after 24 hours compared to mock treated cells, selinexor 0.1 or 1 μM, multiple MOI", "procedure": "(§1) Cell Proliferation Assay: To measure cancer cell proliferation based on the amount of cellular DNA, the CyQuant™ NF Cell Proliferation Assay Kit (Invitrogen) was used according to the manufacturer's instructions. Briefly, PANC-1, HT29, MDA-MB435, and Colo205 cells were seeded in a 96-well plate (1×10^4 cells/well) and left to attach to the wells overnight. The next day, the medium was removed and replaced with 50 μL medium containing different concentrations of selinexor (0-1 μM). After an hour of incubation with selinexor, the virus was added to different MOIs (0.5-5), bringing the end volume of every well up to 100 μL. A 1× dye binding solution was prepared by adding 9 μL of the CyQuant™ NF Dye reagent in 4.5 mL Hank's Balanced Salt Solution (HBSS) buffer (Invitrogen). After 24, 48, 72, and 96 hours of incubation, the medium was removed from the cells and 50 μL 1× dye solution was added to all wells. The microplate was covered to protect it from light and was incubated for 30-60 minutes in a 5% CO2 incubator at 37° C. Subsequently, cell proliferation was quantified by measuring fluorescence with an excitation of 485 nm and emission of 530 nm in a VarioSkan Lux Microplate reader (Thermo Fisher). All experiments were performed in quadruple and normalized to mock-treated cells."}, "Colo205 cells": {"system": "Colo205 cells", "experiment": "CyQUANT NF cell proliferation assay (Colo205)", "type": "cell-based, human", "details": "after 24 hours compared to mock treated cells, selinexor 0.1 or 1 μM, multiple MOI", "procedure": "as §1"}, "Colo205 xenograft tumors": {"system": "Colo205 xenograft tumors", "experiment": "Colo205 xenograft tumor model in NSG mice", "type": "in vivo", "procedure": "(§2) To test the ability of selinexor to enhance MYXV replication in vivo, a xenograft tumor model was established in immunodeficient NSG mice. Human Colo205 (FIG. 7) and HT29 (FIG. 8) cells were injected subcutaneously on both sides of the flank to generate tumors (FIG. 7A). After the tumors size reached between 100-200 mm^3 (2-3 weeks), mice were separated into treatment groups to have approximately equal average tumor sizes. Animals (n=5) were treated with PBS (oral and IT right tumor), selinexor (oral, 15 mg/kg), vMyx-Fluc (wild-type MYXV expressing Firefly luciferase and TdTomato; IT left tumor, 1×10^7 FFU), or selinexor (oral) and vMyx-Fluc (IT left tumor). After 48 hours post-treatment mice were imaged using an IVIS system for luciferase expression. […] Subsequently, mice received 2nd and 3rd doses of selinexor and a second IT injection of MYXV in the same tumor. […] Additionally, tumor burden was measured on both flanks during the course of treatment (FIG. 7F, FIG. 7G, FIG. 8E, and FIG. 8F).\n(§3) Animal Studies: Male and female NSG mice were purchased from Jackson laboratory at 6-8 weeks of age. Animals were housed under sterile conditions. The animals were acclimatized for at least seven days before tumor implantation or any experimental procedures. Cells (1×10^6/mouse in 100 μL PBS) were subcutaneously injected into the flanks of NSG mice. When the average tumor volumes reached 50-200 mm^3, the mice were randomized into different treatment groups of five or six animals such that each treatment group had approximately the same average tumor volume. Tumor volume was measured two or three times per week as follows: volume=(length×width^2)/2. When the tumor volume reached 1.5-2 cm^3 animals were euthanized and tumors were collected for histology or processed for virus titration. To detect MYXV replication in the tumor bed luciferin was injected via IP delivery and bioluminescence images taken (Xenogen IVIS 2000)."}, "HT29 xenograft tumors": {"system": "HT29 xenograft tumors", "experiment": "HT29 xenograft tumor model in NSG mice", "type": "in vivo", "procedure": "as §2, §3"}, "PANC-1 xenograft tumors": {"system": "PANC-1 xenograft tumors", "experiment": "PANC-1 xenograft tumor model in NSG mice", "type": "in vivo", "procedure": "Based on the in vivo results showing selinexor enhances MYXV replication in the tumor bed and reduces the tumor burden in Colo205 and HT29 xenograft tumors, the treatment was examined in PANC-1 xenograft tumors. Human PANC-1 cells were injected subcutaneously on both sides of the flank to generate tumors (FIG. 11A). After the tumor size reached ˜50-100 mm^3 (2-3 weeks), animals were randomly assigned to treatment groups to have approximately equal average tumor size. Animals (n=6) were then treated with PBS, selinexor, MYXV, or selinexor+MYXV. Animals received a total of four treatments within the first two weeks and tumor burden was measured 2-3 times every week. After the first treatment, mice were imaged using the IVIS system for luciferase expression at 24 and 72 hours post-treatment (FIG. 11B and FIG. 11C). […] After imaging and measuring luciferase signals, three additional treatments to test their therapeutic effect on tumor burden and survival were administered.\nLuciferase signals in animals were also measured before the endpoint to confirm the presence of the virus in the tumor bed after the final (fourth) injection. […] Luciferase signal was measured again 23 days after the last viral injection, at which point high luciferase activity was still observed in each group (FIG. 13C). At the endpoint, tumors were collected and virus titration assays were performed (FIG. 13D). […] In both tumors, although not significant, viral load was higher in selinexor+MYXV treated mice than mice treated with MYXV alone.\nAnimal Studies: Male and female NSG mice were purchased from Jackson laboratory at 6-8 weeks of age. Animals were housed under sterile conditions. The animals were acclimatized for at least seven days before tumor implantation or any experimental procedures. Cells (1×10^6/mouse in 100 μL PBS) were subcutaneously injected into the flanks of NSG mice. […] Tumor volume was measured two or three times per week as follows: volume=(length×width^2)/2. […]"}, "[1]": {"system": "Lewis lung carcinoma (LLC1) cells", "experiment": "Lewis lung carcinoma (LLC1) tumor model in immunocompetent C57BL/6 mice", "type": "in vivo", "details": "single agents; selinexor 15 mg/kg oral; MYXV expressing IL15/IL15Ra (vMyx-IL15Ra) IT 5×10^7 FFU; left and right tumors", "procedure": "To verify that the combination of selinexor and MYXV is effective even in mice with a competent immune system, C57BL/6 mice were inoculated with mouse Lewis lung carcinoma (LLC1) cells (FIG. 14A). LLC1 cells were subcutaneously injected on both sides of the flank in C57BL/6 mice. Mice were separated into treatment groups and treated with PBS, selinexor, MYXV expressing IL15/IL15Ra (IT, 5×10^7), or selinexor+MYXV expressing IL15/IL15Ra.\nThe tumor burden on each flank was measured twice every week."}, "MYXV": {"system": "MYXV", "experiment": "MYXV reporter gene expression (GFP/TdTomato) and foci by fluorescence microscopy in human cancer cell lines"}, "[2]": {"details": "48 hours after first vMyx-Fluc IT injection, selinexor oral 15 mg/kg"}, "[3]": {"details": "both flanks, selinexor oral 15 mg/kg, vMyx-Fluc IT 1×10^7 FFU"}}}
{"compound": "O=C(/C=C\\n1cnc(-c2cc(C(F)(F)F)cc(C(F)(F)F)c2)n1)NNc1cnccn1", "note": "[selinexor]", "values": [{"measurement": "cell proliferation (DNA content)", "setting": "PANC-1 cells", "value": "significant reductions in cell proliferation"}, {"measurement": "cell proliferation (DNA content)", "setting": "Colo205 cells", "value": "significant reductions in cell proliferation"}, {"measurement": "luciferase expression (IVIS) vs virus alone", "setting": "Colo205 xenograft tumors; [2]", "value": "significantly higher levels of luciferase"}, {"measurement": "luciferase signal (IVIS) vs virus alone", "setting": "Colo205 xenograft tumors; after second treatment", "value": "significantly enhanced level of luciferase signal"}, {"measurement": "tumor burden compared to PBS or MYXV-only", "setting": "Colo205 xenograft tumors; [3]", "value": "significantly reduced tumor burden"}, {"measurement": "luciferase expression (IVIS) vs virus alone", "setting": "HT29 xenograft tumors; [2]", "value": "significantly higher levels of luciferase"}, {"measurement": "luciferase signal (IVIS) vs virus alone", "setting": "HT29 xenograft tumors; after second treatment", "value": "significantly enhanced level of luciferase signal"}, {"measurement": "tumor burden compared to PBS or MYXV-only", "setting": "HT29 xenograft tumors; [3]", "value": "significantly reduced tumor burden"}, {"measurement": "luciferase signals (IVIS) vs virus alone", "setting": "PANC-1 xenograft tumors; 24 and 72 hours after first treatment", "value": "significantly higher levels of luciferase signals"}, {"measurement": "tumor burden compared to PBS or MYXV alone", "setting": "PANC-1 xenograft tumors; four treatments within first two weeks", "value": "significant reduction in tumor burden"}, {"measurement": "survival compared to PBS or MYXV alone", "setting": "PANC-1 xenograft tumors; mouse, in vivo", "value": "survived significantly longer"}, {"measurement": "tumor burden", "setting": "[1]", "value": "significantly reduced tumor burden"}, {"measurement": "GFP and TdTomato reporter protein expression", "setting": "MYXV; PANC-1, Colo205, MDA-MB435, HCT116, selinexor 0.1-10 μM pre-treatment 1 h, vMyx-GFP-TdTomato MOI 5, 48 h post-infection", "value": "Enhanced GFP and TdTomato reporter protein expression"}, {"measurement": "foci formation in restricted human cancer cell lines", "setting": "MYXV; infected at low MOI, selinexor treatment", "value": "formation of small foci"}, {"measurement": "cell death caused by selinexor alone", "setting": "MYXV; selinexor 10 μM or higher, all cancer cell lines tested", "value": "enhanced cell death"}]}
